In US20180327461A1, “COMPOSITIONS AND METHODS FOR CONTROL OF VECTOR-BORNE DISEASE” (STC.UNM, priority 2015, published 2018):

How the values were obtained:
P. agglomerans = assay type: cell-based, Pantoea agglomerans
[1] = tested on: X. fastidiosa strain Temecula; assay type: cell-based, Xylella fastidiosa

Compound | concentration killing P. agglomerans relative to concentration killing X. fastidiosa (P. agglomerans) | concentration that killed P. agglomerans (P. agglomerans) | concentration that killed X. fastidiosa [1] | toxicity to X. fastidiosa compared with P. agglomerans [1]
CC[C@H](C)[C@H](NC(=O)CN)C(=O)NCC(=O)N[C@@H](C)C(=O)N[C@H](C(=O)N[C@@H](CC(C)C)C(=O)N[C@@H](CCCCN)C(=O)N[C@H](C(=O)N[C@@H](CC(C)C)C(=O)N[C@H](C(=O)N[C@H](C(=O)NCC(=O)N[C@@H](CC(C)C)C(=O)N1CCC[C@H]1C(=O)N[C@@H](C)C(=O)N[C@@H](CC(C)C)C(=O)N[C@H](C(=O)N[C@@H](CO)C(=O)N[C@@H](Cc1c[nH]c2ccccc12)C(=O)N[C@H](C(=O)N[C@@H](CCCCN)C(=O)N[C@@H](CCCNC(=N)N)C(=O)N[C@@H](CCCCN)C(=O)N[C@@H](CCCNC(=N)N)C(=O)N[C@@H](CCC(N)=O)C(=O)N[C@@H](CCC(N)=O)C(N)=O)[C@@H](C)CC)[C@@H](C)CC)[C@@H](C)O)[C@@H](C)O)C(C)C)C(C)C [melittin, Melittin] | five times higher | 25 µM | 5 µM | more toxic to X. fastidiosa than P. agglomerans
scorpine-like molecule [SLM] |  | > 75 µM | 25 µM | more toxic to X. fastidiosa than P. agglomerans
